In patent publication US12544388B2, “Compound for treating and/or preventing diseases caused by coronavirus and use thereof” (SHANGHAITECH UNIVERSITY, priority 2020, dated 2026):
pIC50: −log10 of the molar value.

Legend:
[1] = biological target: SARS-CoV-2 papain-like protease (Severe acute respiratory syndrome coronavirus 2, UniProt P0DTD1); type: biochemical; details: for inhibition of papain-like protease activity versus negative control: 50 μM inhibitor, 0.2 μM enzyme (FIG. 4, FIG. 5)
[2] = in vitro; details: African green monkey
[3] = Phase I, patients with advanced solid tumors; cited from earlier work

SMILES	inhibition of papain-like protease activity versus negative control [1]	CC50 [2] [µM]	pIC50 ([1]; 200 nM enzyme, 20 μM substrate, 10 min room temperature, read-out: IC50, inhibitory activity on novel coronavirus papain-like protease)	MTD (maximum tolerated dose) [3] [mg/m^2/d]
Cc1coc2c1C(=O)C(=O)c1c-2ccc2c(C)cccc12 [tanshinone I, Tanshinone I]	significantly inhibit	> 300		
C[C@H]1COC2=C1C(=O)C(=O)c1c2ccc2c1CCCC2(C)C [cryptotanshinone, Cryptotanshinone]	significantly inhibit	> 300		
Br.COCCn1c2c([n+](Cc3cnccn3)c1C)C(=O)c1ccccc1C2=O [YM155, Sepantronium Bromide]		> 133	5.61	8.0
